Laboratory results published in PubChem BioAssay (NCI).
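Cultured in 96-well plates, cells were exposed to test compound for 48 hours across five concentrations. TGI is the concentration that stops growth completely.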

Legend:
Assay in all cases: DTP human tumour cell line panel, 48 h
[1] = system: OVCAR-3 ovarian
[2] = system: M19-MEL melanoma
[3] = system: EKVX NSCLC
[4] = system: KM20L2 colon
[5] = system: IGROV1 ovarian
[6] = system: COLO 205 colon
[7] = system: LXFL 529 NSCLC
[8] = system: NCI-H23 lung
[9] = system: HCT-116 colon
[10] = system: SNB-78 CNS
[11] = system: HOP-18 NSCLC
[12] = system: 786-0 renal
[13] = system: NCI-H226 lung
[14] = system: HOP-62 NSCLC
[15] = system: RXF 393 renal
[16] = system: K-562 leukemia
[17] = system: SK-MEL-5 melanoma
[18] = system: A549 NSCLC
[19] = system: SNB-19 CNS
[20] = system: ACHN renal
[21] = system: MOLT-4 leukemia
[22] = system: UO-31 renal
[23] = system: SK-OV-3 ovarian
[24] = system: RPMI-8226 leukemia
[25] = system: M14 melanoma
[26] = system: LOX IMVI melanoma
[27] = system: HT29 colon
[28] = system: SF-295 CNS
[29] = system: HOP-92 NSCLC
[30] = system: SR leukemia
[31] = system: MALME-3M melanoma
[32] = system: OVCAR-5 ovarian
[33] = system: OVCAR-8 ovarian
[34] = system: DMS 114 small cell lung
[35] = system: SW-620 colon
[36] = system: KM12 colon
[37] = system: HCC-2998 colon
[38] = system: DLD-1 colon
[39] = system: UACC-257 melanoma
[40] = system: CCRF-CEM leukemia
[41] = system: SK-MEL-28 melanoma
[42] = system: TK-10 renal
[43] = system: SNB-75 CNS
[44] = system: NCI-H522 lung
[45] = system: SN12C renal
[46] = system: OVCAR-4 ovarian
[47] = system: UACC-62 melanoma
[48] = system: HL-60(TB) leukemia
[49] = system: SF-268 CNS

Measured: TGI

COc1ccc(-c2cc(=O)c3cc(OC)ccc3[nH]2)cc1
> 100 µM: all assays above
